How the values were obtained:
[1] = test system: Bacillus subtilis ATCC 6633; experiment: disc plate method (Table 2); assay type: cell-based; settings: paper disc 8 mm; for zone of inhibition at 1000 µg/mL / zone of inhibition at 10000 µg/mL: Bacillus subtilis, read-out: Inhibition zone (diameter); for zone of inhibition at 1000 µg/mL: ATCC6633, 1 mg/ml; for zone of inhibition at 1000 µg/mL / Inhibition zone (diameter): Bacillus subtilis ATCC 6633 (Table 2); for zone of inhibition at 10000 µg/mL: ATCC6633, 10 mg/ml, Bacillus subtilis ATCC 6633; for Inhibition zone (diameter): 1 mg/ml
From the text: (§1) Tables 1 and 2 show the antibacterial spectra of the antibiotics KA-6606 VII to KA-6606 XVII against various bacteria, determined by the disc plate method, in comparison with the KA-6606 II substance. Each of the chemicals is used as impregnated in a paper disc having a diameter of 8 mm.

[2] = test system: Escherichia coli NIHJ JC-2; experiment: disc plate method (Table 2); assay type: cell-based; settings: paper disc 8 mm; for zone of inhibition at 1000 µg/mL / zone of inhibition at 10000 µg/mL: Escherichia coli, read-out: Inhibition zone (diameter); for zone of inhibition at 1000 µg/mL: NIHJJC2, 1 mg/ml; for zone of inhibition at 10000 µg/mL: NIHJJC2, 10 mg/ml; for Inhibition zone (diameter): 1 mg/ml
From the text: as §1

[3] = test system: Klebsiella pneumoniae PCI 602; experiment: disc plate method (Table 2); assay type: cell-based; settings: paper disc 8 mm; for zone of inhibition at 1000 µg/mL: Klebsiella pneumoniae, PCI602, 1 mg/ml, read-out: Inhibition zone (diameter); for Inhibition zone (diameter): 1 mg/ml
From the text: as §1

Proteus inconstans [4] = experiment: disc plate method (Table 2); assay type: cell-based; settings: 1 mg/ml, paper disc 8 mm, Proteus inconstans (Table 2); for zone of inhibition at 1000 µg/mL: Providencia alcalifaciens, read-out: Inhibition zone (diameter)
From the text: as §1

Proteus vulgaris OX-107 = experiment: disc plate method (Table 2); assay type: cell-based; settings: paper disc 8 mm; for zone of inhibition at 1000 µg/mL / zone of inhibition at 10000 µg/mL: Proteus vulgaris, read-out: Inhibition zone (diameter); for zone of inhibition at 1000 µg/mL: OX107, 1 mg/ml; for zone of inhibition at 10000 µg/mL: OX107, 10 mg/ml; for Inhibition zone (diameter): 1 mg/ml
From the text: as §1

[5] = test system: Pseudomonas aeruginosa NCTC 10490; experiment: disc plate method (Table 2); assay type: cell-based; settings: paper disc 8 mm; for zone of inhibition at 1000 µg/mL / zone of inhibition at 10000 µg/mL: Pseudomonas aeruginosa, read-out: Inhibition zone (diameter); for zone of inhibition at 1000 µg/mL: NCTC10490, 1 mg/ml; for zone of inhibition at 10000 µg/mL: NCTC10490, 10 mg/ml; for Inhibition zone (diameter): 1 mg/ml
From the text: as §1

Serratia marcescens NHL = experiment: disc plate method (Table 2); assay type: cell-based; settings: paper disc 8 mm; for zone of inhibition at 1000 µg/mL / zone of inhibition at 10000 µg/mL: Serratia marcescens, read-out: Inhibition zone (diameter); for zone of inhibition at 1000 µg/mL / Inhibition zone (diameter): 1 mg/ml; for zone of inhibition at 10000 µg/mL: 10 mg/ml
From the text: as §1

[6] = test system: Staphylococcus aureus 209D-JC-1; experiment: disc plate method (Table 2); assay type: cell-based; settings: paper disc 8 mm; for zone of inhibition at 1000 µg/mL / zone of inhibition at 10000 µg/mL: Staphylococcus aureus, read-out: Inhibition zone (diameter); for zone of inhibition at 1000 µg/mL: 209DJC1, 1 mg/ml; for zone of inhibition at 10000 µg/mL: 209DJC1, 10 mg/ml; for Inhibition zone (diameter): 1 mg/ml
From the text: as §1

Solubility in solvents = assay type: physicochemical
Stability = assay type: physicochemical; settings: pH range in which stable
[7] = test system: Bacillus subtilis ATCC 6633; experiment: disc plate method (Table 1); assay type: cell-based; settings: paper disc 8 mm, Bacillus subtilis ATCC 6633 (Table 1)
From the text: as §1

Escherichia coli NIHJ = experiment: disc plate method (Table 1); assay type: cell-based; settings: 1 mg/ml, paper disc 8 mm
From the text: as §1

Klebsiella pneumoniae = experiment: disc plate method (Table 1); assay type: cell-based; settings: 1 mg/ml, paper disc 8 mm
From the text: as §1

Proteus inconstans [8] = experiment: disc plate method (Table 1); assay type: cell-based; settings: 1 mg/ml; paper disc 8 mm; Proteus inconstans (Table 1)
From the text: as §1

Proteus vulgaria = experiment: disc plate method (Table 1); assay type: cell-based; settings: 1 mg/ml, paper disc 8 mm
From the text: as §1

Pseudomonas aeruginosa = experiment: disc plate method (Table 1); assay type: cell-based; settings: 1 mg/ml, paper disc 8 mm, read-out: Inhibition zone (diameter)
From the text: as §1

Serratia marcescens = experiment: disc plate method (Table 1); assay type: cell-based; settings: 1 mg/ml, paper disc 8 mm
From the text: as §1

[9] = test system: Staphylococcus aureus 209P; experiment: disc plate method (Table 1); assay type: cell-based; settings: 1 mg/ml, paper disc 8 mm
From the text: as §1

[10] = read-out: Inhibition zone (diameter)

| Solubility in solvents: chloroform (Solubility in solvents) | Solubility in solvents: ethyl acetate (Solubility in solvents) | Solubility in solvents: methanol (Solubility in solvents) | Solubility in solvents: water (Solubility in solvents) | Stability (stable at pH) (Stability) | Compound | zone of inhibition at 1000 µg/mL [1] [mm] | zone of inhibition at 1000 µg/mL [2] [mm] | zone of inhibition at 1000 µg/mL [3] [mm] | zone of inhibition at 1000 µg/mL (Proteus vulgaris OX-107) [mm] | zone of inhibition at 1000 µg/mL [5] [mm] | zone of inhibition at 1000 µg/mL (Serratia marcescens NHL) [mm] | zone of inhibition at 1000 µg/mL [6] [mm] | zone of inhibition at 1000 µg/mL (Proteus inconstans [4]) [mm] | also measured |
| --- | --- | --- | --- | --- | --- | --- | --- | --- | --- | --- | --- | --- | --- | --- |
| Insoluble | Insoluble | Easily soluble | Easily soluble | 2-10 pH | CNC1C(O)CC(N)C(OC2OC(C(C)N)CCC2N)C1O (centres unmarked) [KA-6606 IX] | 23.8 | 16.7 | 13.7 | 15.2 | 15.9 | 16 | 22.9 | – | Inhibition zone (diameter) (Proteus inconstans [4]): 9.4 mm |
| Insoluble | Insoluble | Easily soluble | Easily soluble | 2-10 pH | CNC1C(OC)CC(N)C(OC2OC(C(C)N)CCC2N)C1O (centres unmarked) [KA-6606 VIII] | – | – | – | – | – | – | – | – | Inhibition zone (diameter) ([7]; 1 mg/ml): 26.2 mm; Inhibition zone (diameter) (Escherichia coli NIHJ): 21.9 mm; Inhibition zone (diameter) (Klebsiella pneumoniae): 18.8 mm; Inhibition zone (diameter) (Proteus inconstans [8]): 18.9 mm; Inhibition zone (diameter) (Proteus vulgaria): 23.3 mm; zone of inhibition at 1000 µg/mL (Pseudomonas aeruginosa): 17.3 mm; Inhibition zone (diameter) (Serratia marcescens): 19.7 mm; Inhibition zone (diameter) [9]: 13.5 mm |
| Insoluble | Insoluble | Easily soluble | Easily soluble | 2-10 pH | CNC1C(OC)CC(N)C(OC2OC(C(C)N)CCC2N)C1O (centres unmarked) [KA-6606 VII] | – | – | – | – | – | – | – | – | zone of inhibition at 1000 µg/mL ([7]; Bacillus subtilis, ATCC6633, 1 mg/ml, read-out: Inhibition zone (diameter)): 17.8 mm; zone of inhibition at 1000 µg/mL (Escherichia coli NIHJ; Escherichia coli, read-out: Inhibition zone (diameter)): 17.5 mm; Inhibition zone (diameter) (Klebsiella pneumoniae): 9.0 mm; Inhibition zone (diameter) (Proteus inconstans [8]): 9.0 mm; zone of inhibition at 1000 µg/mL (Proteus vulgaria; [10]): 20.1 mm; zone of inhibition at 1000 µg/mL (Serratia marcescens; [10]): 15.1 mm; zone of inhibition at 1000 µg/mL ([9]; Staphylococcus aureus, 209P, read-out: Inhibition zone (diameter)): 9.3 mm |
| Insoluble | Insoluble | Easily soluble | Easily soluble | 2-10 pH | CNC1C(OC)CC(N)C(OC2OC(C(C)N)=CCC2N)C1O (centres unmarked) [KA-6606 XIII] | 22.6 | 18.4 | 17 | 18.5 | 14.8 | 18.5 | 22 | 14.3 | – |
| Insoluble | Insoluble | – | Easily soluble | 2-10 pH | CNC1C(O)CC(N)C(OC2OC(CO)C(O)C(O)C2N)C1O (centres unmarked) [KA-6606 XII] | – | – | – | – | – | – | – | – | zone of inhibition at 10000 µg/mL [1]: 17.7 mm; zone of inhibition at 10000 µg/mL [2]: 9.2 mm; zone of inhibition at 10000 µg/mL (Proteus vulgaris OX-107): 9.3 mm; zone of inhibition at 10000 µg/mL [5]: 9.3 mm; zone of inhibition at 10000 µg/mL (Serratia marcescens NHL): 9.8 mm; zone of inhibition at 10000 µg/mL [6]: 16.8 mm |
| Insoluble | Insoluble | Easily soluble | Easily soluble | 2-10 pH | CNC1C(OC)CC(N)C(OC2OC(CN)CCC2N)C1O (centres unmarked) [KA-6606 XIV] | 19.1 | 11.8 | 9.5 | 12 | 9.2 | 13.5 | 17.1 | 8.5 | – |
| Insoluble | Insoluble | Easily soluble | Easily soluble | 2-10 pH | CNC1C(O)CC(N)C(OC2OC(C(C)N)CCC2N)C1O (centres unmarked) [KA-6606 XI] | – | – | – | – | – | – | – | – | Inhibition zone (diameter) [1]: 23.5 mm; Inhibition zone (diameter) [2]: 18.0 mm; Inhibition zone (diameter) [3]: 18.5 mm; Inhibition zone (diameter) (Proteus inconstans [4]): 19.0 mm; Inhibition zone (diameter) (Proteus vulgaris OX-107): 15.1 mm; Inhibition zone (diameter) [5]: 16.6 mm; Inhibition zone (diameter) (Serratia marcescens NHL): 16.8 mm; Inhibition zone (diameter) [6]: 25.2 mm |
| Insoluble | Insoluble | Easily soluble | Easily soluble | 2-10 pH | CNC1C(OC)CC(NC(N)=O)C(OC2OC(C(C)N)CCC2N)C1O (centres unmarked) [KA-6606 XVII] | – | – | – | – | – | – | – | – | zone of inhibition at 10000 µg/mL [1]: 17.3 mm; zone of inhibition at 10000 µg/mL [2]: 10.7 mm; zone of inhibition at 10000 µg/mL (Proteus vulgaris OX-107): 16.8 mm; zone of inhibition at 10000 µg/mL [5]: 10.1 mm; zone of inhibition at 10000 µg/mL (Serratia marcescens NHL): 13.6 mm; zone of inhibition at 10000 µg/mL [6]: 14.2 mm |
| Insoluble | Insoluble | Easily soluble | Easily soluble | 2-10 pH | CNC1C(OC)CC(N)C(OC2OC(C(C)N)CCC2NC(N)=O)C1O (centres unmarked) [KA-6606 XVI] | 20.6 | 16.2 | 8.5 | 15.8 | 11.8 | 16.3 | 16.3 | 8.9 | – |
| Insoluble | Insoluble | Easily soluble | Easily soluble | 2-10 pH | CNC1C(OC)CC(N)C(OC2OC(CN)=CCC2N)C1O (centres unmarked) [KA-6606 XV] | 23.1 | 18.5 | 18.6 | 16.4 | 16.2 | 18.2 | 23.3 | 9 | – |
| Insoluble | Insoluble | Easily soluble | Easily soluble | 2-10 pH | CNC1C(O)CC(N)C(OC2OC(C(C)N)CCC2N)C1O (centres unmarked) [KA-6606 X] | – | – | – | – | – | – | – | – | Inhibition zone (diameter) [1]: 22.5 mm; Inhibition zone (diameter) [2]: 16.3 mm; Inhibition zone (diameter) [3]: 17.4 mm; Inhibition zone (diameter) (Proteus inconstans [4]): 11.9 mm; Inhibition zone (diameter) (Proteus vulgaris OX-107): 16.6 mm; Inhibition zone (diameter) [5]: 13.8 mm; Inhibition zone (diameter) (Serratia marcescens NHL): 16.5 mm; Inhibition zone (diameter) [6]: 23.3 mm |

— patent US4515942A, “Antibiotics KA-6606 XII, XIII, XV, XVI and XVII” (Kowa Company, Ltd., priority 1980, dated 1985)
